Measurements: patent US20260207602A1, “EGFR INHIBITORS” (Blueprint Medicines Corporation, priority 2022, published 2026)

Key:
[1] = target: intracellular phosphorylation of EGFR (Tyr1068) in PC-9 cells (Homo sapiens, UniProt P00533, DEL746-750); experiment: PC-9 pEGFR AlphaLISA assay; format: cell-based; conditions: 4 hours incubation, read-out: Phos EGFR PC9 IC50
Summary of the method: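 PC-9 cells (EGFR del746-750) in phenol-free DMEM/10% FBS, adhered overnight, then exposed to 10-point 4-fold compound dilutions for 4 h at 37 °C. Lysates assayed for pEGFR Tyr1068 by AlphaLISA SureFire Ultra; IC50 from percent pEGFR inhibition vs log concentration.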

[2] = target: T1, EGFR (d746-750) (Homo sapiens, UniProt P00533, DEL746-750); experiment: Biochemical EGFR inhibition assay (Caliper mobility shift), EGFR (d746-750); conditions: biochemical Caliper mobility shift assay, EGFR Exon 19-del enzyme; read-out: Enz EGFR Exon 19-del IC50
T1 construct: purchased SignalChem E10-122JG
Summary of the method: (§1)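 Apparent IC50 values come from Caliper electrophoretic separation of phosphorylated and unphosphorylated 5-FAM peptide (2.5 μM). ATP was either 1.0 mM or at Km; HEPES pH 7.5 buffer with MgCl2, DTT, 1% DMSO. Reactions ran at 25 °C until 10–20% phosphorylated, then EDTA quench.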

[3] = target: T2, EGFR L858R (Homo sapiens, UniProt P00533, L858R); experiment: Biochemical EGFR inhibition assay (Caliper mobility shift), EGFR L858R; conditions: biochemical Caliper mobility shift assay, EGFR L858R enzyme; read-out: Enz EGFR L858R IC50
T2 construct: purchased SignalChem E10-122BG
Summary of the method: as §1

T1 sequence (P00533 with tags, fused parts or gaps DEL746-750 limits assumed): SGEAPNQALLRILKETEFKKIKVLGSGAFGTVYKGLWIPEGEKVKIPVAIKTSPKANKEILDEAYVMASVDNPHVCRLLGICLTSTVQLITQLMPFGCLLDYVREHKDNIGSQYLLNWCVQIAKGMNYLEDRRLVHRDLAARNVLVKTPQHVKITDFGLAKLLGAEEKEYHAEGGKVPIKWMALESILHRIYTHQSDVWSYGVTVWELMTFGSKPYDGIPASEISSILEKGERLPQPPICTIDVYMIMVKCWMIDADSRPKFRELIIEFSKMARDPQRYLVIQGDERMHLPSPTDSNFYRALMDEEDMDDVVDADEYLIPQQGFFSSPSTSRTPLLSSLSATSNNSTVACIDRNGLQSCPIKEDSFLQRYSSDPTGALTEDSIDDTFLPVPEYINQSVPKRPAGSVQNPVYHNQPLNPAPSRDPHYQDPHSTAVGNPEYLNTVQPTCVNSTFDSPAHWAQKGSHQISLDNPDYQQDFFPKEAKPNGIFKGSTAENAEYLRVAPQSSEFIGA
intracellular phosphorylation of EGFR (Tyr1068) in PC-9 cells, sequence (P00533 with tags, fused parts or gaps DEL746-750): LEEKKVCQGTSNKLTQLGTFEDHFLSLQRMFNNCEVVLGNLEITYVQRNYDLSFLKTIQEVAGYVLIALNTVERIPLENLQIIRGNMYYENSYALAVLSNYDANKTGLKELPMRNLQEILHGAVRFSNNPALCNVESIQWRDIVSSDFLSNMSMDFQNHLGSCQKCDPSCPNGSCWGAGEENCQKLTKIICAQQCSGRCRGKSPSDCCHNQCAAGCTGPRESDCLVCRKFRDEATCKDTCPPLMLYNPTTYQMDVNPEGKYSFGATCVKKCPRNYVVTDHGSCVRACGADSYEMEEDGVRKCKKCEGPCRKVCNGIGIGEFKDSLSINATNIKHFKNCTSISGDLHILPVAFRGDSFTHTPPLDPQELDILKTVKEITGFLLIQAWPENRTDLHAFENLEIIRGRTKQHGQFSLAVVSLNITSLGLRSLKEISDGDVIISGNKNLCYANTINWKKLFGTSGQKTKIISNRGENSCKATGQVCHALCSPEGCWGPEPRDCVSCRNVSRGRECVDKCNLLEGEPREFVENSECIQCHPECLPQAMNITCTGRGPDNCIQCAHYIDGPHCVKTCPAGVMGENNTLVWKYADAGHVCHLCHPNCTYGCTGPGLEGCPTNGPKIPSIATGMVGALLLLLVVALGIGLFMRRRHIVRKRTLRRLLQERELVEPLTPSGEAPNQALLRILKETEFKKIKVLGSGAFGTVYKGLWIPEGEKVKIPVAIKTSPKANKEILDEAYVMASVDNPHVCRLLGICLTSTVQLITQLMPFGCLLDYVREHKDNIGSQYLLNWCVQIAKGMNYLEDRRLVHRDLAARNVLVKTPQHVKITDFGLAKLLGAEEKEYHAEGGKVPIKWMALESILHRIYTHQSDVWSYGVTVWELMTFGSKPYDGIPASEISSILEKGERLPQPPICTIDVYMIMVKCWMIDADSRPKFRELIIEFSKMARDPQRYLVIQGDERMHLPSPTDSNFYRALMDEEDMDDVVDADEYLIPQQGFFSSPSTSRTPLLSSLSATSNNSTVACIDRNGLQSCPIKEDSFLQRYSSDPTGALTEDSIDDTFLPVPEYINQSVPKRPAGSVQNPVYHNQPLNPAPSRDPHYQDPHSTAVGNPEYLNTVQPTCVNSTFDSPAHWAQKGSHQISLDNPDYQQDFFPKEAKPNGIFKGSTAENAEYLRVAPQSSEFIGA
T2 sequence (P00533 25-1210 L858R): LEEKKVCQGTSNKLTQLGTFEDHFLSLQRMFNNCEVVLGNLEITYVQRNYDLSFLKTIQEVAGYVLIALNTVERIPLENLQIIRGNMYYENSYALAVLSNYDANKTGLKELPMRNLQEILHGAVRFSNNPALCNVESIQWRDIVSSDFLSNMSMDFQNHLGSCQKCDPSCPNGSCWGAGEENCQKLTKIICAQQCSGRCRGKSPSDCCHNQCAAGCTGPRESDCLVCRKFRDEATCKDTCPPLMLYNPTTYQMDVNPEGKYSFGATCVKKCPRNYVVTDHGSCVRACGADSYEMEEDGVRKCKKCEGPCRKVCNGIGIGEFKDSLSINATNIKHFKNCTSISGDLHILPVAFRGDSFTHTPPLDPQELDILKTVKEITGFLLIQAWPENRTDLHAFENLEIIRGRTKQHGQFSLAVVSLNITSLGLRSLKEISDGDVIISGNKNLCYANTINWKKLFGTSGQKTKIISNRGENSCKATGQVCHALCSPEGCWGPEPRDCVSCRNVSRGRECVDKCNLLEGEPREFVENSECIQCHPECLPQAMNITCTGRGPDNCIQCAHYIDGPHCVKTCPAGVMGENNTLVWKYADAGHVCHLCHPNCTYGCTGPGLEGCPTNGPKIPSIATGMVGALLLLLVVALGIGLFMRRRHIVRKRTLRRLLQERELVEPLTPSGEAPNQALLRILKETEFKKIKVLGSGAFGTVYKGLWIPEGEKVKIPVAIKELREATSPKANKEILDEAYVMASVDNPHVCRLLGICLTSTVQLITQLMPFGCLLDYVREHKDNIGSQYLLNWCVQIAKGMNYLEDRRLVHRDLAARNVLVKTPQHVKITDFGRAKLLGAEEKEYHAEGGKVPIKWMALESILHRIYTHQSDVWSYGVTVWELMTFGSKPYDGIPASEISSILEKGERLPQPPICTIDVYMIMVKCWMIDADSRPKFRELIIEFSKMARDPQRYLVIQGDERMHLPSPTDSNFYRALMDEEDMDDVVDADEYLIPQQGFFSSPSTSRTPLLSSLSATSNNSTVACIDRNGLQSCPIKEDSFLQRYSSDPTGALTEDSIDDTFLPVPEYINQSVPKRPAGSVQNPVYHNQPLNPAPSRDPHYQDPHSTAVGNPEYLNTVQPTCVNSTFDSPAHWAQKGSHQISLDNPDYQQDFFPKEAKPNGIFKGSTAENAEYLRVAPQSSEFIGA

| Structure (SMILES) | IC50 [1] | IC50 [2] | IC50 [3] |
| --- | --- | --- | --- |
| C[C@H](Oc1cc(-c2cnn(C)c2)cc2ncnc(Nc3ccc4ncsc4c3F)c12)C1COC1 (single isomer, unassigned) [Example 71, (S)-7-fluoro-N-(7-(1-methyl-1H-pyrazol-4-yl)-5-(1-(oxetan-3-yl)ethoxy)quinazolin-4-yl)benzo[d]thiazol-6-amine or (R)-7-fluoro-N-(7-(1-methyl-1H-pyrazol-4-yl)-5-(1-(oxetan-3-yl)ethoxy)quinazolin-4-yl)benzo[d]thiazol-6-amine] | ≤ 10 nM | ≤ 10 nM | ≤ 10 nM |
| C[C@H](CN(C)C)Oc1cc(-c2cnn(C)c2)cc2ncnc(Nc3ccc4ncsc4c3F)c12 [Example 140, (R)-N-(5-((1-(dimethylamino)propan-2-yl)oxy)-7-(1-methyl-1H-pyrazol-4-yl)quinazolin-4-yl)-7-fluorobenzo[d]thiazol-6-amine] | ≤ 10 nM | ≤ 10 nM | ≤ 10 nM |
| C[C@@H](Oc1cc(-c2cnn(C)c2)cc2ncnc(Nc3ccc4ncsc4c3F)c12)[C@H]1CCOC1 (single isomer, unassigned) [Example 88] | ≤ 10 nM | ≤ 10 nM | ≤ 10 nM |
| C[C@@H](Oc1cc(-c2cnn(C)c2)cc2ncnc(Nc3ccc4ncsc4c3F)c12)[C@@H]1CCCO1 [Example 112, 7-fluoro-N-(7-(1-methyl-1H-pyrazol-4-yl)-5-((R)-1-((S)-tetrahydrofuran-2-yl)ethoxy)quinazolin-4-yl)benzo[d]thiazol-6-amine] | ≤ 10 nM | ≤ 10 nM | ≤ 10 nM |
| C[C@@H]1CN(c2cc(O[C@H](C)C3COC3)c3c(Nc4ccc5ncsc5c4F)ncnc3c2)CCN1C (single isomer, unassigned) [Example 102] | ≤ 10 nM | ≤ 10 nM | ≤ 10 nM |
| COc1nn(C)cc1-c1cc(O[C@H]2CCCN(C)C2)c2c(Nc3ccc4ncsc4c3)ncnc2c1 [Example 12, (S)-N-(7-(3-methoxy-1-methyl-1H-pyrazol-4-yl)-5-((1-methylpiperidin-3-yl)oxy)quinazolin-4-yl)benzo[d]thiazol-6-amine] | ≤ 10 nM | ≤ 10 nM | ≤ 10 nM |
| Cn1cc(-c2cc(O[C@H]3CCOC[C@@H]3F)c3c(Nc4ccc5ncsc5c4)ncnc3c2)cn1 (single isomer, unassigned) [Example 45] | 10.1 to 50 nM | ≤ 10 nM | ≤ 10 nM |
| C[C@@H](Oc1cc(-c2cnn(C)c2)cc2ncnc(Nc3ccc4ncsc4c3F)c12)C1CCOCC1 (single isomer, unassigned) [Example 110] | 10.1 to 50 nM | ≤ 10 nM | ≤ 10 nM |
| COC[C@H](C)Oc1cc(-c2cnn(C)c2)cc2ncnc(Nc3ccc4ncsc4c3F)c12 [Example 139, (S)-7-fluoro-N-(5-((1-methoxypropan-2-yl)oxy)-7-(1-methyl-1H-pyrazol-4-yl)quinazolin-4-yl)benzo[d]thiazol-6-amine] | ≤ 10 nM | ≤ 10 nM | ≤ 10 nM |
| CN1CCC(COc2cc(-c3cnn(C)c3)cc3ncnc(Nc4ccc5ncsc5c4)c23)C1=O (stereo not drawn) [Example 61, 3-(((4-(benzo[d]thiazol-6-ylamino)-7-(1-methyl-1H-pyrazol-4-yl)quinazolin-5-yl)oxy)methyl)-1-methylpyrrolidin-2-one] | 10.1 to 50 nM | ≤ 10 nM | ≤ 10 nM |

Other lines, results leading:

| IC50 [1] | IC50 [2] | IC50 [3] | Structure (SMILES) |
| --- | --- | --- | --- |
| ≤ 10 nM | ≤ 10 nM | ≤ 10 nM | C[C@H](CN(C)C)Oc1cc(N2CC3CC(C2)O3)cc2ncnc(Nc3ccc4ncsc4c3)c12 [Example 177, N-(7-(6-oxa-3-azabicyclo[3.1.1]heptan-3-yl)-5-(((R)-1-(dimethylamino)propan-2-yl)oxy)quinazolin-4-yl)benzo[d]thiazol-6-amine] |
| ≤ 10 nM | ≤ 10 nM | ≤ 10 nM | CC(C)N1CCN(c2cc(OC3CCOCC3)c3c(Nc4ccc5ncsc5c4)ncnc3c2)C1=O [Example 194, 1-(4-(benzo[d]thiazol-6-ylamino)-5-((tetrahydro-2H-pyran-4-yl)oxy)quinazolin-7-yl)-3-isopropylimidazolidin-2-one] |
| ≤ 10 nM | ≤ 10 nM | ≤ 10 nM | COc1nn(C)cc1-c1cc(O[C@@H]2CCNC[C@@H]2F)c2c(Nc3ccc4ncsc4c3)ncnc2c1 [Example 363, N-(5-(((3S,4R)-3-fluoropiperidin-4-yl)oxy)-7-(3-methoxy-1-methyl-1H-pyrazol-4-yl)quinazolin-4-yl)benzo[d]thiazol-6-amine] |
| 10.1 to 50 nM | ≤ 10 nM | 10.1 to 50 nM | CN1CCC(Oc2cc(-c3cn(C)nc3OC(F)F)cc3ncnc(Nc4ccc5ncsc5c4)c23)CC1 [Example A18, N-(7-(3-(difluoromethoxy)-1-methyl-1H-pyrazol-4-yl)-5-((1-methylpiperidin-4-yl)oxy)quinazolin-4-yl)benzo[d]thiazol-6-amine] |
| ≤ 10 nM | ≤ 10 nM | ≤ 10 nM | CC(C)Oc1cc(-c2cnn(C)c2)cc2ncnc(Nc3ccc4ncsc4c3)c12 [Example 405, N-(5-isopropoxy-7-(1-methyl-1H-pyrazol-4-yl)quinazolin-4-yl)benzo[d]thiazol-6-amine] |
| > 50.1 nM | 10.1 to 50 nM | > 50.1 nM | C[C@@H](Oc1cc(-c2cnn(C)c2)cc2ncnc(Nc3ccc4ncsc4c3F)c12)C1CN(C)C1 (single isomer, unassigned) [Example 388] |
| ≤ 10 nM | ≤ 10 nM | ≤ 10 nM | COc1nn(C)cc1-c1cc(O[C@H]2CN(C)C[C@H]2F)c2c(Nc3ccc4ncsc4c3)ncnc2c1 (single isomer, unassigned) [Example 373] |
| ≤ 10 nM | ≤ 10 nM | ≤ 10 nM | C[C@@H](Oc1cc(-c2cnn(C)c2)cc2ncnc(Nc3ccc4ncsc4c3)c12)C(=O)N1CCOCC1 [Example 285, (R)-2-((4-(benzo[d]thiazol-6-ylamino)-7-(1-methyl-1H-pyrazol-4-yl)quinazolin-5-yl)oxy)-1-morpholinopropan-1-one] |
| ≤ 10 nM | ≤ 10 nM | ≤ 10 nM | CN1CC[C@H](Oc2cc(-c3cnn(C)c3)cc3ncnc(Nc4ccc5ncsc5c4)c23)[C@@H](F)C1 (single isomer, unassigned) [Example 344] |
| 10.1 to 50 nM | ≤ 10 nM | ≤ 10 nM | C[C@H](CN1CCOCC1)Oc1cc(-c2cnn(C)c2)cc2ncnc(Nc3ccc4ncsc4c3)c12 [Example 395, (R)-N-(7-(1-methyl-1H-pyrazol-4-yl)-5-((1-morpholinopropan-2-yl)oxy)quinazolin-4-yl)benzo[d]thiazol-6-amine] |
| ≤ 10 nM | ≤ 10 nM | ≤ 10 nM | C[C@@H](Oc1cc(-c2cnn(C)c2)cc2ncnc(Nc3ccc4ncsc4c3F)c12)C1CN(C)C1 (single isomer, unassigned) [Example 387] |
| 10.1 to 50 nM | ≤ 10 nM | 10.1 to 50 nM | COc1cc2ncnc(Nc3ccc4ncsc4c3)c2cc1NC(=O)CCN1CCCCC1 [Example 400, N-(4-(benzo[d]thiazol-6-ylamino)-7-methoxyquinazolin-6-yl)-3-(piperidin-1-yl)propanamide] |
| ≤ 10 nM | ≤ 10 nM | ≤ 10 nM | C[C@@H](Oc1cc(-c2cnn(C)c2)cc2ncnc(Nc3ccc4ncsc4c3)c12)C(CO)CO [Example A56, (R)-2-(1-((4-(benzo[d]thiazol-6-ylamino)-7-(1-methyl-1H-pyrazol-4-yl)quinazolin-5-yl)oxy)ethyl)propane-1,3-diol] |
